Test results taken from patent US20210069230A1, “SYNERGISTIC DRUG COMBINATIONS PREDICTED FROM GENOMIC FEATURES AND SINGLE-AGENT RESPONSE PROFILES” (THE BROAD INSTITUTE, INC., priority 2018, published 2021).
Where two headings read alike, the source gives them in different places.

How the values were obtained:
[1] = biological target: Monoacylglycerol lipase (MAGL) (Mus musculus, UniProt O35678); conditions: dose of 16 mg/kg; cited from earlier work
[2] = tested on: 242 cell lines in CTRPv1; conditions: JZL184 alone; cited from earlier work
[3] = tested on: 27 cell lines; test: GSK-J4 with or without JZL184 in 27 cell lines (CellTiter-Glo); format: cell-based; conditions: individual validation experiments or the pooled PRISM assay
Method: (§1) Cell lines were taken from viably frozen stocks of the same original provenance as for CTRP and DepMap data, with identity confirmed by SNP-based DNA fingerprinting as described previously (12, 13, 39). Cell lines were propagated using the same media and culture conditions as for CTRPv2.0 experiments. […] For live-cell imaging, cells were plated into clear-bottom plates (Corning) and imaged on an IncuCyte S3 throughout the course of the experiment. For CellTiter-Glo experiments, the initial viability of a subset of plated cells was established at the same time as compound addition using CellTiter-Glo as described previously (24). […] DMSO- and D0-normalized concentration-response curves were generated using four-parameter nonlinear regression using the drc package in R (40). Biphasic curves were also fit and prioritized relative to standard four-parameter curves where appropriate using the BIC (Bayesian information criteria) metric. […] General-purpose optimization (Nelder-Mean algorithm) was used for single-agent fits, and the “model” option was used to predict variance. Overall significance was assessed using the bootstrapped meanR test (n=1000 iterations), and per-concentration significance using maxR, as described by the package authors.

[4] = tested on: cell lines with high expression of the nominated protein; test: 72-hour co-treatment of index compounds with co-target inhibitors; format: cell-based; conditions: single agent
Method: GAPDH was used as a loading control.
as §1

[5] = tested on: WM2664 cells overexpressing ABCB1; test: Lentiviral ORF overexpression, compound sensitivity (CellTiter-Glo, GR); format: cell-based; conditions: 72 hours
Method: as §1
(§2) Infection and selection were carried out according to GPP Viral Infection protocols, followed by cell seeding in 384-well plates for compound treatment or harvesting for Western blotting as described above.
(§3) Parental cell lines were virally transduced with cDNAs that constitutively overexpressed BCL2L1, AIFM2, or MGLL (in G402 and CJM cells); ABCB1 or MGMT (in WM2664 cells); SLC7A11 (in BT12 and G402 cells); MCL1 (in HCC1500 cells); or IRS2 (in T47D cells) and subsequently drug sensitivity was measured. To account for potential differences in growth rates and to distinguish between cytostatic and cytotoxic drug responses, the normalized growth rate inhibition (GR) metric was used to assess cell viability (FIG. 3A) (18).

[6] = tested on: BT12 and G402 cells overexpressing SLC7A11; test: as above; format: cell-based; conditions: 72 hours
Method: as §1, §2, §3

[7] = tested on: G402, G402-MGLL and KMRC3 cells; test: Chromatin-modifying compounds and GSK-J4 analogues with MGLL overexpression or JZL184 co-treatment; format: cell-based; conditions: for effect of JZL184 co-treatment on sensitivity: cells expressing MGLL
Method: as §1
To assess whether MGLL could augment sensitivity to other inhibitors of chromatin modifying enzymes, a panel of other small molecules annotated to inhibit chromatin-related processes, targeting other KDM proteins, histone deacetylases (HDACs), and histone methyltransferases (e.g., EZH2, DOT1L) was tested. […] The effects of a number of GSK-J4 analogues (FIG. 7B) were also tested.

[8] = tested on: type IIA topoisomerases; conditions: cited from earlier work
[9] = tested on: MEWO cell line; test: CRISPR-Cas9 knockout of AIFM2, response to compound; format: cell-based; conditions: four different sgRNAs
Method: (§4) Cas9 stably-infected HEC1A, MEWO, SUIT2, and WM2664 cells and sgRNAs (pXPR_BRD003 vector) targeting AIFM2, IRS2, MGLL, or control guides (non-cutting) were acquired from the GPP (FIG. 23). Cell line identities were confirmed to match parental cells using SNP fingerprinting. Virus was generated and infection carried out as described above. After puromycin selection (3 μg/mL for MEWO, 1.5 μg/mL for WM2664, 2 μg/mL for SUIT2 and HEC1A), cells were seeded in 384-well plates for compound treatment or harvested for Western blotting as described above.
(§5) As small-molecule inhibitors were not available for AIFM2 or IRS2, CRISPR-Cas9 was used to knock out these genes in proficient cell lines.

[10] = tested on: G402 and CJM cells overexpressing AIFM2; test: Lentiviral ORF overexpression, compound sensitivity (CellTiter-Glo, GR); format: cell-based; conditions: 72 hours
Method: as §1, §2, §3

[11] = cited from earlier work
[12] = tested on: SIMA cell line; test: KX2-391 response versus ABCB1 expression and activity (elacridar co-treatment); format: cell-based
Description: FIGS. 14A to 14S present supporting data for co-inhibition experiments across additional compounds and cellular models, further to FIG. 3 above. […] FIG. 14R presents dependency data from the DepMap portal (www.depmap.org) for BCL2L1 as a function of BCL2L1 expression (blue to red) and measured sensitivity (GR50) to the BCL2L1 inhibitor WEHI-539. FIG. 14S presents dependency data from the DepMap portal (www.depmap.org) for MCL1 as a function of […] (blue to red) and measured sensitivity (GR50) to the MCL1 inhibitor S63845.
The instant approach can therefore be applied and extended in a number of ways. First, it can be used to identify potential resistance mechanisms that may contribute to relapse in initially responsive settings. Second, it can be used to prioritize combinations for increased initial efficacy if the co-target biomarker is already present, or to de-prioritize single-agent treatment where it is likely to be less efficacious, particularly where alternatives might exist. For example, drug efflux pump expression (e.g., of ABCB1, encoding P-glycoprotein) has been observed as a clinical mechanism of resistance to various chemotherapeutics (30). ABCB1 inhibitors were discontinued from clinical development, largely due to challenges with selectivity and on-target toxicity (31). […]

[13] = tested on: WM2664 cells overexpressing MGMT; test: Lentiviral ORF overexpression, compound sensitivity (live-cell imaging, GR); format: cell-based; conditions: 120 hours
Method: Cell lines were taken from viably frozen stocks of the same original provenance as for CTRP and DepMap data, with identity confirmed by SNP-based DNA fingerprinting as described previously (12, 13, 39). Cell lines were propagated using the same media and culture conditions as for CTRPv2.0 experiments. […] For live-cell imaging, cells were plated into clear-bottom plates (Corning) and imaged on an IncuCyte S3 throughout the course of the experiment. For CellTiter-Glo experiments, the initial viability of a subset of plated cells was established at the same time as compound addition using CellTiter-Glo as described previously (24). […] DMSO- and D0-normalized concentration-response curves were generated using four-parameter nonlinear regression using the drc package in R (40). […] Overall significance was assessed using the bootstrapped meanR test (n=1000 iterations), and per-concentration significance using maxR, as described by the package authors. […]
Parental cell lines were virally transduced with cDNAs that constitutively overexpressed BCL2L1, AIFM2, or MGLL (in G402 and CJM cells); ABCB1 or MGMT (in WM2664 cells); SLC7A11 (in BT12 and G402 cells); MCL1 (in HCC1500 cells); or IRS2 (in T47D cells) and subsequently drug sensitivity was measured. […]

[14] = biological target: MGLL (Homo sapiens, UniProt Q99685); test: Recombinant protein/mass spec assay of MGLL-mediated modification; format: biochemical
Description: The GSK-J4-modifying impact of MGLL is examined further via a recombinant protein/mass spec assay.

[15] = tested on: WM2664 cells; test: CRISPR-Cas9 knockdown of IRS2, response to compound; format: cell-based
Method: as §4, §5

[16] = tested on: KDM6 proteins; conditions: cited from earlier work
[17] = tested on: HCC1500 cells overexpressing MCL1; test: Lentiviral ORF overexpression, compound sensitivity (CellTiter-Glo, GR); format: cell-based; conditions: 72 hours
Method: as §1, §2, §3

Sequence of Monoacylglycerol lipase (MAGL) (O35678 whole entry): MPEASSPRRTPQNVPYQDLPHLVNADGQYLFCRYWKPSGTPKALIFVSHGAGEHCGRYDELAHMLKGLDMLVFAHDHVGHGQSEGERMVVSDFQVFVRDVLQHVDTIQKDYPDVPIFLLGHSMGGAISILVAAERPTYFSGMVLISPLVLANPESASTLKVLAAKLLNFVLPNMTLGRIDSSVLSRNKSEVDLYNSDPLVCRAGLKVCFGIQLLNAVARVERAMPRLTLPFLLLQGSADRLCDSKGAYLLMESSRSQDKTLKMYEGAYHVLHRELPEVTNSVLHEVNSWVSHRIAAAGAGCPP
Sequence of MGLL (Q99685 whole entry): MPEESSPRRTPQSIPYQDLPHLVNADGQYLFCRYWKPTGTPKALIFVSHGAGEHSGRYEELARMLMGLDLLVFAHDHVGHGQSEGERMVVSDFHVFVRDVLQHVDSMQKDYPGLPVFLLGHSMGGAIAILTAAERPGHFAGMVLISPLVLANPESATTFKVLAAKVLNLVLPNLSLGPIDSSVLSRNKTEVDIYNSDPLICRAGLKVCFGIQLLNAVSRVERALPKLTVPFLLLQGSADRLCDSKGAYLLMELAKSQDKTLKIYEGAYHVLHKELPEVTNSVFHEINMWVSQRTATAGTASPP

For `O=C(Oc1ccc([N+](=O)[O-])cc1)N1CCC(C(O)(c2ccc3c(c2)OCO3)c2ccc3c(c2)OCO3)CC1` [JZL184, 4-nitrophenyl 4-(dibenzo[d][1,3]dioxol-5-yl(hydroxy)methyl)piperidine-1-carboxylate], the “blockade of MAGL” value [1] is given as “near-complete blockade”, the dose-dependent toxicity [2] is given as “did not demonstrate dose-dependent toxicity” and the “effects of JZL184 alone” value [3] is given as “very modest effects”. The “growth impact of combination partner on its own” value [4] was “only modest growth impact”.
For `CC[C@@H]1C(=O)N(C)c2cnc(Nc3ccc(C(=O)NC4CCN(C)CC4)cc3OC)nc2N1C1CCCC1` [BI-2536], the “resistance (GR50 shift) conferred by ABCB1 overexpression” value [5] was 40 fold.
With `CC(C)=CC[C@@H](O)C1=CC(=O)c2c(O)ccc(O)c2C1=O` [shikonin] the “resistance (GR50 shift) conferred by SLC7A11 overexpression” value [6] was 10 fold.
With `CCOC(=O)CCNc1cc(N2CCc3ccccc3CC2)nc(-c2cccnc2)n1` [GSK-J5] the “effect of MGLL overexpression on toxicity” value [7] was “reduced toxicity”, the “potency relative to GSK-J4” value [7] was “much less potent” and the “effect of JZL184 co-treatment on sensitivity” value [7] was “sensitized by JZL184”.
In the case of `O=C(O)c1cn(C2CC2)c2cc(N3CCNCC3)c(F)cc2c1=O` [Ciprofloxacin], the “targets prokaryotes more than eukaryotic topo IIs” value [8] is listed as “in excess of a thousandfold”.
In the case of `CC(=O)O[C@H]1C(=O)[C@@]2(C)[C@H]([C@H](OC(=O)c3ccccc3)[C@]3(O)C[C@H](OC(=O)[C@H](O)[C@@H](NC(=O)c4ccccc4)c4ccccc4)C(C)=C1C3(C)C)[C@]1(OC(C)=O)CO[C@@H]1C[C@@H]2O` [paclitaxel], the “resistance (GR50 shift) conferred by ABCB1 overexpression” value [5] is reported as 50 fold.
For `Cc1onc(C(=O)N2CCN(C(c3ccc(Cl)cc3)c3ccc(Cl)cc3)CC2)c1[N+](=O)[O-]` [ML210], the “effect of targeting AIFM2 with sgRNAs on response” value [9] was “sensitization”, the “resistance (GR50 shift) conferred by AIFM2 overexpression” value [10] was greater than 500 fold and the “resistance (GR50 shift) conferred by SLC7A11 overexpression” value [6] was 8 fold.
For `O=C1C2CCN(CC2)C1(CO)CO` [PRIMA-1], the “resistance (GR50 shift) conferred by AIFM2 overexpression” value [10] was “approximately threefold” and the “resistance (GR50 shift) conferred by SLC7A11 overexpression” value [6] was 20 fold.
For `O=C(O)CCNc1cc(N2CCc3ccccc3CC2)nc(-c2ccccn2)n1` [GSK-J1], the “concentrations at which toxicity was shown” value [7] is given as greater than 20 µM, the “effect of MGLL overexpression or JZL184 co-treatment/inhibition on toxicity” value [7] is given as “not affected” and the cellular permeability [11] is given as “cell-impermeable”.
In the case of `O=C(Cc1ccc(-c2ccc(OCCN3CCOCC3)cc2)cn1)NCc1ccccc1` [KX2-391], the “relation of response to ABCB1” value [12] is reported as “not correlated with ABCB1 expression or affected by the presence of active ABCB1 protein”.
In the case of `O=NN(CCCl)C(=O)NCCCl` [carmustine], the “resistance (GR50 shift) conferred by MGMT overexpression” value [13] is reported as 4 fold.
With `OCCCNc1cc(N2CCc3ccccc3CC2)nc(-c2ccccn2)n1` [KDOBA67] the “toxicity relative to GSK-J4” value ([7]; MGLL-deficient cell lines) was “equivalent toxicity”, the “effect of JZL184 co-treatment on sensitivity” value [7] was “could not be further sensitized” and the “potency relative to GSK-J4” value ([7]; resistant lines that expressed MGLL either endogenously or ectopically) was “more potent”. For the same molecule, the MGLL-mediated modification [14] was “no modification” and the cellular permeability [11] was “cell-permeable”.
For `CS(=O)(=O)N1CCN(Cc2cc3nc(-c4cccc5[nH]ncc45)nc(N4CCOCC4)c3s2)CC1` [pictilisib], the “effect of knockdown of IRS2 on response” value [15] was “modest but consistent sensitization”.
In the case of `CCOc1ccccc1-n1c(C(C)N2CCN(C(=O)COc3ccc(Cl)cc3)CC2)nc2ccccc2c1=O` (stereo not drawn) [erastin], the “resistance (GR50 shift) conferred by SLC7A11 overexpression” value [6] is reported as 30 fold.
In the case of `O=C(O)CCNc1cc(N2CCc3ccccc3CC2)nc(-c2cccnc2)n1` [GSK-J2], the “effect of MGLL overexpression or JZL184 co-treatment/inhibition on toxicity” value [7] is listed as “not affected”, the toxicity ([7]; at 80 μM) is listed as less than 30% and the “activity against KDM6” value [16] is listed as “inactive”.
For `CC1(C)CCC(c2ccc(Cl)cc2)=C(CN2CCN(c3ccc(C(=O)NS(=O)(=O)c4ccc(N[C@H](CCN5CCOCC5)CSc5ccccc5)c(S(=O)(=O)C(F)(F)F)c4)cc3)CC2)C1` [navitoclax], the “resistance (GR50 shift) conferred by MCL1 overexpression” value [17] was 100 fold.
With `CC(C)(C)c1cnc(CSc2cnc(NC(=O)C3CCNCC3)s2)o1` [SNS-032] the “resistance (GR50 shift) conferred by ABCB1 overexpression” value [5] was 25 fold.
